This is an account of results in patent US11787785B2 (NOVARTIS AG, priority 2021, dated 2023).

This test has as its target T1, WIZ protein (HiBit-WIZ fusion protein) (Homo sapiens, UniProt O95785+Q96SW2).
T1 construct: expressed in transfected cells
As to the kind of experiment: Quantification of WIZ protein levels in HiBit tag fusion protein assay (WIZ HiBit assay in 293T cells). The settings on record: for DC50: WIZ HiBit assay in 293T cells, 10-point, 5-fold dose response, highest concentration 25 μM, about 18 hours, read-out: WIZ AC50. The class given is cell-based. Set-up: remaining activity / Dmax: dose or concentration left out as unconfirmed. In a few lines:
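HiBit-tagged WIZ (N-terminal tag, HSVTK promoter) stably expressed single-copy in 293T cells; 10-point 1:5 compound series, top 25 μM, ~18 h at 37 °C. Lytic HiBit/LgBit luminescence read; Amax = curve-fitted % WIZ-HiBit remaining at 25 μM, DMSO normalized to 100%.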
(With HiBiT, luminescence reflects the tagged protein that the partner subunit can reach.)

Where [1] appears, read: HEK-293T, 100 − Amax, at 25 uM, 293T cells, read-out: % degradation of WIZ (100 − Amax).
Where [2] appears, read: HEK-293T, DMSO-normalized, curve-fitted percentage of WIZ-HiBit remaining at 25 uM, 293T cells, read-out: WIZ Amax.

T1 sequence (O95785 whole entry, the tested form may be a part): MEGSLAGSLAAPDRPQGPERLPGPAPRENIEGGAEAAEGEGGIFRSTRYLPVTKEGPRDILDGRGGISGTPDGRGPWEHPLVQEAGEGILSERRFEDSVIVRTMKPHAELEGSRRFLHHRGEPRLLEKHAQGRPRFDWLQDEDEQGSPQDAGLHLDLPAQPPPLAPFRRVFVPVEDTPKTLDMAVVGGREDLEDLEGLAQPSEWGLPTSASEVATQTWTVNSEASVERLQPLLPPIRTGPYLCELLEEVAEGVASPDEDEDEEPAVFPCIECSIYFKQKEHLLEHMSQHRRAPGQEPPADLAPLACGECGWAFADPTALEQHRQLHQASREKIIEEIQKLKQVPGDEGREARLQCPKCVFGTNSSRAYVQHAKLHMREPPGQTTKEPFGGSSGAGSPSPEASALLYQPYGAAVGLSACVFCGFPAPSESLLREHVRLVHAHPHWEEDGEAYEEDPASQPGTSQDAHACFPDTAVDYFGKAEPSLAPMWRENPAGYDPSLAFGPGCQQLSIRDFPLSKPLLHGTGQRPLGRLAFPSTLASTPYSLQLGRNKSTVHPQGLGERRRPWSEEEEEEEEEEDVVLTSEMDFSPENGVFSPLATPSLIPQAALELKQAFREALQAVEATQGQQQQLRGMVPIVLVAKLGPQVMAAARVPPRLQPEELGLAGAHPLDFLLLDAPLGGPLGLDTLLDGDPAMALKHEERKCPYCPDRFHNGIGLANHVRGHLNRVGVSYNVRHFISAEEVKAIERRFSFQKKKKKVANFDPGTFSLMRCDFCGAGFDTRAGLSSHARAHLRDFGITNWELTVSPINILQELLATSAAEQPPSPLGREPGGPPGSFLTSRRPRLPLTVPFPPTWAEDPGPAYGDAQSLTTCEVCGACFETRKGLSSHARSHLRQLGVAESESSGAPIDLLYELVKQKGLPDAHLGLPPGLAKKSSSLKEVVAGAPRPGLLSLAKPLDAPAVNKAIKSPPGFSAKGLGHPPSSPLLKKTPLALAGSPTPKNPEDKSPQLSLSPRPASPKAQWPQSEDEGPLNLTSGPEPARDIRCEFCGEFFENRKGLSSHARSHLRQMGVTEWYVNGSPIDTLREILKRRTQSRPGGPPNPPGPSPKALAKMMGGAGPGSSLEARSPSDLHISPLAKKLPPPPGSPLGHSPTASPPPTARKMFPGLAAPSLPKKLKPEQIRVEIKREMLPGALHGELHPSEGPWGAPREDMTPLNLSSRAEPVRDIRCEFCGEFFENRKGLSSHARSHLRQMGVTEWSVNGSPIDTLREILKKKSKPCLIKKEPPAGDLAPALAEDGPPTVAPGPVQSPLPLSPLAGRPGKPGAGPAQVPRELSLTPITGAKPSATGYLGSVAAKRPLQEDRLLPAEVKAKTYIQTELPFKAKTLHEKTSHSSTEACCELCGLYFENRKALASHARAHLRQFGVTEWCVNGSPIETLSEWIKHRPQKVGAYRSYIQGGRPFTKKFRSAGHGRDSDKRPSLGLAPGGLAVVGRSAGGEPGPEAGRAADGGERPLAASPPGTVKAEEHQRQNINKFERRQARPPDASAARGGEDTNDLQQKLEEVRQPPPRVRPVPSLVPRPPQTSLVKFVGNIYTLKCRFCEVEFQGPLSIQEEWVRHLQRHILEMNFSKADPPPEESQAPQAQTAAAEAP
T1 sequence (Q96SW2 whole entry, the tested form may be a part): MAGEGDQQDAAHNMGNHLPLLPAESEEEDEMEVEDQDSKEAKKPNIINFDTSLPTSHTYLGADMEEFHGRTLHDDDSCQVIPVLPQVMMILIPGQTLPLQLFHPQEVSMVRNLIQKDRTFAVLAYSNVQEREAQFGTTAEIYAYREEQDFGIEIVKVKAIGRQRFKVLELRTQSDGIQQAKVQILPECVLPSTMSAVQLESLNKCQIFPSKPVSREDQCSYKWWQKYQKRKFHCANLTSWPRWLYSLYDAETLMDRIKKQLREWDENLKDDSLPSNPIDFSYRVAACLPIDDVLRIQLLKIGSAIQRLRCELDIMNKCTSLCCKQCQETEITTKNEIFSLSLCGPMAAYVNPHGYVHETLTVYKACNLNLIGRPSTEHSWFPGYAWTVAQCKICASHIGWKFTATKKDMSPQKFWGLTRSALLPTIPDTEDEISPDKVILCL
T1 sequence (Q16531 whole entry partner, the tested form may be a part): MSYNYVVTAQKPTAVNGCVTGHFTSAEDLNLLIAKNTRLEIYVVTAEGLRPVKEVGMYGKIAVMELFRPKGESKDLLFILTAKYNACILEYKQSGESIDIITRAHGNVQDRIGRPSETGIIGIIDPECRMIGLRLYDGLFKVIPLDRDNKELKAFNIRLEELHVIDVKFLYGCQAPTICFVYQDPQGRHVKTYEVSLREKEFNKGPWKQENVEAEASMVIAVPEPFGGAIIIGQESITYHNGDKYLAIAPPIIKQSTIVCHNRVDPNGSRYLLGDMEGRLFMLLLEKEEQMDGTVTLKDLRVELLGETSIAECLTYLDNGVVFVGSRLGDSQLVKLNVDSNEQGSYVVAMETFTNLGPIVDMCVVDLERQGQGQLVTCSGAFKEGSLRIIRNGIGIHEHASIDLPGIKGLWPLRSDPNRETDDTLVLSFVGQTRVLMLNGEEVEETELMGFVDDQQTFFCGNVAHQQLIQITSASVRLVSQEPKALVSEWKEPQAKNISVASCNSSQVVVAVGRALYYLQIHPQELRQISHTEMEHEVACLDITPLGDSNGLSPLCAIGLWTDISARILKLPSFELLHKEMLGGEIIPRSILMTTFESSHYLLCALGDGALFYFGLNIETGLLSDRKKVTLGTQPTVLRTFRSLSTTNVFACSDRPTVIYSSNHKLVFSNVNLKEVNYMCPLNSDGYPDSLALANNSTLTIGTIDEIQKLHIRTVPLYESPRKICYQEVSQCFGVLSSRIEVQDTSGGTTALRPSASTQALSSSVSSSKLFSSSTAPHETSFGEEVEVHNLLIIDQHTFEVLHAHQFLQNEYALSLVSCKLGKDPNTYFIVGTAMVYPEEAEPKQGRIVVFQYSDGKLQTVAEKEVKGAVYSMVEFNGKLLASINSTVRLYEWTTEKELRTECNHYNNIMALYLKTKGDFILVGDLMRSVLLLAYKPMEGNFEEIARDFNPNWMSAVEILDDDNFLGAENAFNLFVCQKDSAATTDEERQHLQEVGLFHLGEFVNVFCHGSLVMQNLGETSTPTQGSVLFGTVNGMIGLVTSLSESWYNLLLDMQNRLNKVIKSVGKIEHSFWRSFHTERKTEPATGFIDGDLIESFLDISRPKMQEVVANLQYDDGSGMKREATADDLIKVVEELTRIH

With `Cc1cn(-c2cnn3ccc(C[C@@H]4CCN(CC(C)C)[C@@H](C)C4)cc23)c(=O)[nH]c1=O` [Example 347, 1-(5-(((2S,4R)-1-isobutyl-2-methylpiperidin-4-yl)methyl)pyrazolo[1,5-a]pyridin-3-yl)-5-methylpyrimidine-2,4(1H,3H)-dione], the DC50 was 378 nM. The Dmax at 25 µM under setting [1] worked out at 89%. Further, under setting [2], the remaining activity at 25 µM is 11%.
Take `O=C1CCN(c2cnn3ccc(CC4CCN(Cc5ccc(F)c(F)c5)CC4)cc23)C(=O)N1` [Example 45, 1-(5-((1-(3,4-difluorobenzyl)piperidin-4-yl)methyl)pyrazolo[1,5-a]pyridin-3-yl)dihydropyrimidine-2,4(1H,3H)-dione]: the DC50 came out at 23 nM. Also, under setting [1], the Dmax at 25 µM worked out at 70%. For the same molecule, the remaining activity at 25 µM under setting [2] was 30%.
The like results for `C[C@H]1C[C@@H](Cc2ccn3ncc(N4CCC(=O)NC4=O)c3c2)CCN1CC1CCOCC1` [Example 73] were, in that order, 3 nM, 89% and 11%.
Turning to `C[C@H]1CN(Cc2ccn3ncc(N4CCC(=O)NC4=O)c3c2)CCN1C1CCCCC1` [Example 333], the DC50 was 68 nM. Also, under setting [1], the Dmax at 25 µM came out at 87%. Also, the remaining activity at 25 µM under setting [2] is 13%.
With `O=C1CCN(c2cnn3ccc(CC4CCN(S(=O)(=O)C5CCOCC5)CC4)cc23)C(=O)N1` [Example 83], the DC50 is 76 nM. Moreover, the Dmax at 25 µM under setting [1] turned out to be 89%. The remaining activity at 25 µM under setting [2] was found to be 11%.
`O=C1CCN(c2cnn3ccc(CC4CCN(Cc5cccc(OC(F)(F)F)c5)CC4)cc23)C(=O)N1` [Example 27, 1-(5-((1-(3-(trifluoromethoxy)benzyl)piperidin-4-yl)methyl)pyrazolo[1,5-a]pyridin-3-yl)dihydropyrimidine-2,4(1H,3H)-dione]: the DC50 was determined as 46 nM. Also, the Dmax at 25 µM under setting [1] is 76%. For the same molecule, the remaining activity at 25 µM under setting [2] was 24%.
Consider `CN1CCCC(Cc2ccn3ncc(N4CCC(=O)NC4=O)c3c2)CC1` (stereo not drawn) [Example 271, 1-(5-((1-methylazepan-4-yl)methyl)pyrazolo[1,5-a]pyridin-3-yl)dihydropyrimidine-2,4(1H,3H)-dione], for which the DC50 is 702 nM. The Dmax at 25 µM under setting [1] came out at 63%. The remaining activity at 25 µM under setting [2] came to 37%.
With `Cc1cn(-c2cnn3ccc(CN4CCN(CC(C)C)[C@@H](C)C4)cc23)c(=O)[nH]c1=O` [Example 359, (S)-1-(5-((4-isobutyl-3-methylpiperazin-1-yl)methyl)pyrazolo[1,5-a]pyridin-3-yl)-5-methylpyrimidine-2,4(1H,3H)-dione], the DC50 worked out at 365 nM. In addition, the Dmax at 25 µM under setting [1] was 89%. The remaining activity at 25 µM under setting [2] amounted to 11%.
On to `C[C@H]1C[C@H](Cc2ccn3ncc(-n4ccc(=O)[nH]c4=O)c3c2)CCN1CC1CCC(F)(F)CC1` [Example 268, 1-(5-(((2S,4R)-1-((4,4-difluorocyclohexyl)methyl)-2-methylpiperidin-4-yl)methyl)pyrazolo[1,5-a]pyridin-3-yl)pyrimidine-2,4(1H,3H)-dione], for which the DC50 was found to be 24 nM. Further, the Dmax at 25 µM under setting [1] turned out to be 89%. Also, the remaining activity at 25 µM under setting [2] amounted to 11%.
Turning to `COCC(F)(F)CN1CC[C@@H](Cc2ccn3ncc(N4CCC(=O)NC4=O)c3c2)C[C@@H]1C` [Example 278, 1-(5-(((2S,4R)-1-(2,2-difluoro-3-methoxypropyl)-2-methylpiperidin-4-yl)methyl)pyrazolo[1,5-a]pyridin-3-yl)dihydropyrimidine-2,4(1H,3H)-dione], the DC50 was determined as 66 nM. Besides, the Dmax (HEK-293T, read-out: % degradation of WIZ (100 − Amax)) is 72%. Besides, the remaining activity (HEK-293T, read-out: WIZ Amax) came out at 28%.
Take `O=C1CCN(c2cnn3ccc(CC4CCN(Cc5ccccc5Cl)CC4)cc23)C(=O)N1` [Example 59, 1-(5-((1-(2-chlorobenzyl)piperidin-4-yl)methyl)pyrazolo[1,5-a]pyridin-3-yl)dihydropyrimidine-2,4(1H,3H)-dione]: the DC50 came out at 98 nM. Also, the Dmax at 25 µM under setting [1] is 58%. For the same molecule, under setting [2], the remaining activity at 25 µM stood at 42%.
`O=C1CCN(c2cnn3ccc(CC4CCN(Cc5cccc(F)c5F)CC4)cc23)C(=O)N1` [Example 53, 1-(5-((1-(2,3-difluorobenzyl)piperidin-4-yl)methyl)pyrazolo[1,5-a]pyridin-3-yl)dihydropyrimidine-2,4(1H,3H)-dione]: the DC50 amounted to 37 nM. Also, the Dmax at 25 µM under setting [1] was found to be 65%. In addition, the remaining activity at 25 µM under setting [2] was 35%.
`CC(C)CN1CC[C@@H](Cc2ccn3ncc(-n4cc(C5CC5)c(=O)[nH]c4=O)c3c2)C[C@@H]1C` [Example 354, 5-cyclopropyl-1-(5-(((2S,4R)-1-isobutyl-2-methylpiperidin-4-yl)methyl)pyrazolo[1,5-a]pyridin-3-yl)pyrimidine-2,4(1H,3H)-dione]: the DC50 was over 25000 nM. Moreover, under setting [1], the Dmax at 25 µM amounted to 0%. Also, the remaining activity at 25 µM under setting [2] is 100%.
On to `C[C@H]1CC(F)(Cc2ccn3ncc(N4CCC(=O)NC4=O)c3c2)CCN1CC1CCC(F)(F)CC1` (single isomer, unassigned) [Example 309], for which the DC50 turned out to be 56 nM. Further, under “100 − Amax, at 25 uM, 293T cells”, the “% degradation of WIZ (100 − Amax)” value is listed as 62%. The “WIZ Amax” value (DMSO-normalized, curve-fitted percentage of WIZ-HiBit remaining at 25 uM, 293T cells) came to 38%.
Regarding `O=C1CCN(c2cnn3ccc(CC4CCN(CC5CCC(F)(F)CC5)CC4)cc23)C(=O)N1` [Example 4, 1-(5-((1-((4,4-difluorocyclohexyl)methyl)piperidin-4-yl)methyl)pyrazolo[1,5-a]pyridin-3-yl)dihydropyrimidine-2,4(1H,3H)-dione], the DC50 is 5 nM. Further, under setting [1], the Dmax at 25 µM was 90%. For the same molecule, the remaining activity at 25 µM under setting [2] amounted to 10%.
The matching figures for `O=C1CCN(c2cnn3ccc(CN4CCN5CCCC[C@@H]5C4)cc23)C(=O)N1` [Example 313, (R)-1-(5-((octahydro-2H-pyrido[1,2-a]pyrazin-2-yl)methyl)pyrazolo[1,5-a]pyridin-3-yl)dihydropyrimidine-2,4(1H,3H)-dione]: 85 nM, 70% and 30%.
`C[C@H]1CN(Cc2ccn3ncc(N4CCC(=O)NC4=O)c3c2)CCN1C[C@H]1C[C@@H](F)[C@@H](F)C1` [Example 318, 1-(5-(((S)-4-(((1r,3R,4S)-3,4-difluorocyclopentyl)methyl)-3-methylpiperazin-1-yl)methyl)pyrazolo[1,5-a]pyridin-3-yl)dihydropyrimidine-2,4(1H,3H)-dione]: the DC50 stood at 10 nM. Moreover, the Dmax at 25 µM under setting [1] came to 87%. Moreover, under setting [2], the remaining activity at 25 µM turned out to be 13%.
For `CO[C@H]1CC[C@@H](CN2CCN(Cc3ccn4ncc(N5CCC(=O)NC5=O)c4c3)CC2)CC1` [Example 180, 1-(5-((4-(((1s,4s)-4-methoxycyclohexyl)methyl)piperazin-1-yl)methyl)pyrazolo[1,5-a]pyridin-3-yl)dihydropyrimidine-2,4(1H,3H)-dione], the DC50 was found to be 78 nM. The Dmax at 25 µM under setting [1] is 81%. In addition, the remaining activity at 25 µM under setting [2] came out at 19%.
`O=C1CCN(c2cnn3ccc(CC4CCN(CC(F)(F)C(F)F)CC4)cc23)C(=O)N1` [Example 31, 1-(5-((1-(2,2,3,3-tetrafluoropropyl)piperidin-4-yl)methyl)pyrazolo[1,5-a]pyridin-3-yl)dihydropyrimidine-2,4(1H,3H)-dione]: the DC50 came to 27 nM. Further, under setting [1], the Dmax at 25 µM came to 74%. The remaining activity at 25 µM under setting [2] was 26%.
`C[C@H]1CN(Cc2ccn3ncc(N4CCC(=O)NC4=O)c3c2)CCN1CC1CC2(COC2)C1` [Example 325, (S)-1-(5-((4-((2-oxaspiro[3.3]heptan-6-yl)methyl)-3-methylpiperazin-1-yl)methyl)pyrazolo[1,5-a]pyridin-3-yl)dihydropyrimidine-2,4(1H,3H)-dione]: the DC50 worked out at 47 nM. Also, the Dmax at 25 µM under setting [1] is 82%. The remaining activity at 25 µM under setting [2] is 18%.
Regarding `C[C@H]1C[C@H](Cc2ccn3ncc(N4CCC(=O)NC4=O)c3c2)CCN1S(=O)(=O)NC1CCCC1` [Example 293], the DC50 came to 65 nM. Also, under setting [1], the Dmax at 25 µM stood at 76%. The remaining activity at 25 µM under setting [2] is 24%.
The matching figures for `O=C1CCN(c2cnn3ccc(CC4CCN(CCO)CC4)cc23)C(=O)N1` [Example 35, 1-(5-((1-(2-hydroxyethyl)piperidin-4-yl)methyl)pyrazolo[1,5-a]pyridin-3-yl)dihydropyrimidine-2,4(1H,3H)-dione]: 3140 nM, 73% and 27%.
Take `C[C@@H]1C[C@@H](Cc2ccn3ncc(N4CCC(=O)NC4=O)c3c2)CCN1CC1CCC(F)(F)CC1` [Example 155]: the DC50 is 9 nM. Also, the Dmax at 25 µM under setting [1] stood at 85%. Besides, the remaining activity at 25 µM under setting [2] was 15%.
For the molecule `O=C1CCN(c2cnn3ccc(CC4CCN(CC(CO)CO)CC4)cc23)C(=O)N1` [Example 121, 1-(5-((1-(3-hydroxy-2-(hydroxymethyl)propyl)piperidin-4-yl)methyl)pyrazolo[1,5-a]pyridin-3-yl)dihydropyrimidine-2,4(1H,3H)-dione], the DC50 is over 25000 nM. For the same molecule, the Dmax at 25 µM under setting [1] turned out to be 50%. For the same molecule, the remaining activity at 25 µM under setting [2] is 50%.
As for `O=C1CCN(c2cnn3ccc(CN4CCCNCC4)cc23)C(=O)N1` [Example 248, 1-(5-((1,4-diazepan-1-yl)methyl)pyrazolo[1,5-a]pyridin-3-yl)dihydropyrimidine-2,4(1H,3H)-dione], the DC50 was over 25000 nM. In addition, the Dmax at 25 µM under setting [1] was found to be 0%. Further, under setting [2], the remaining activity at 25 µM is 100%.
